Results taken from paper PMC11868595, “Safety, pharmacokinetics and efficacy of HA121-28 in patients with advanced solid tumors and RET fusion-positive non-small-cell lung cancer: a multicenter, open-label, single-arm phase 1/2 trial” (Signal Transduction and Targeted Therapy, 2025).

System: patients with advanced solid tumors
Test: Phase 1 trial: adverse events (CTCAE), DLT and MTD
Type: in vivo, human
Procedure: The phase 1 trial was a two-part, multicenter, open-label, nonrandomized study to evaluate the safety and preliminary efficacy of HA121-28.
Safety, tolerability, and PK of HA121-28 was assessed in dose-escalation part. The single-patient accelerated titration was carried out at 25 mg and 50 mg; then, the dose escalation proceeded according to a “3 + 3” design in dose range of 100 to 800 mg. Escalation to a higher dose level was considered by the satisfactory review of safety results from the previous lower dose during the first cycle.
The dose-expansion part aims to further access the safety and efficacy of HA121-28 at the selected doses based on data from the dose-escalation part. The RP2D was determined by investigators in view of a thorough review of safety, PK, and efficacy results.
In phase 1 trial, during the dose-escalation part, patients first administered HA121-28 in a single ascending dose under the fasted state, then followed up for seven days. Then, patients received ascending doses of HA121-28 (q.d.) on a 21-day on and 7-day off treatment scheme for a 28-day cycle. For patients deemed beneficial from the treatment by investigators, treatment could remain until disease progression, or they discontinued from the study. In the dose-expansion part of phase 1, as well as phase 2, patients received HA121-28 (q.d.) at the selected doses on a 21-day on and 7-day off treatment scheme until disease progression, or they discontinued from the study.
Treatment-emergent adverse events (TEAEs) were documented during the entire study period. The predefined adverse event of special interest (AESI) was ≥ grade 3 prolonged QT interval. Tumor imaging was performed using contrast-enhanced computed tomography or magnetic resonance imaging at screening, Day 28 of the first cycle, then approximately every eight weeks till the end of the study for phase 1; in phase 2, imaging was scheduled at screening, and every eight weeks during the first 40 weeks, followed by every 12 weeks for the rest of the study period. RECIST 1.1 was used by the independent review committee or investigators for assessment of tumor response. After the original assessment, a repeated assessment was required around four weeks later to confirm a complete or partial response.
The primary endpoints of phase 1 were to investigate the MTD, dose-limiting toxicities, and the incidence and severity of TEAEs. Each TEAE was graded according to the Common Terminology Criteria for Adverse Events (CTCAE, version 5.0) and coded by Medical Dictionary for Regulatory Activities (MedDRA, version 21.0). The secondary endpoints included calculating PK parameters, assessing the ORR and DCR at the recommended dose by investigators as per RECIST 1.1. The exploratory endpoint was PFS.
If grade 2 or higher toxicity related to the study drug occurs in Groups 1 and 2 (as determined by the investigator), dose escalation will proceed using a 3+3 design starting from that dose level. If no DLT is observed at the 800 mg/d dose level after dose escalation, a meeting of investigators will be convened to decide whether to proceed with further dose escalation based on the available PK data, safety, and tolerability information.
5. Definition of DLT and MTD
The following events related to the study drug (including those that are definitely related, highly likely to be related, and possibly related):
(1) Grade 4 hematologic toxicity or grade 3 neutropenia accompanied by a fever of 38.5℃ or higher, or grade 3 thrombocytopenia accompanied by severe bleeding.
(2) Patients who discontinued the medication for more than 7 days due to unresolved toxicity reactions or who discontinued the medication more than twice due to toxicity […]
(3) In the context of supportive treatment, diarrhea of grade 2 lasting more than 7 days, or grade 3 diarrhea lasting more than 3 days.

Q: COc1cc2c(Nc3ccc(Br)cc3F)ncnc2cc1OCCCCN(C)C.Cl.Cl [HA121-28, N-(4-bromo-2-fluorophenyl)-7-(4-(dimethylamino)butoxy)-6-methoxy quinazolin-4-amine dihydrochloride] was tested. Which “Serious TRAE: Drug eruption” value (Phase 1, 600 mg (N=64)) did it give?
A: The value was 1 (1.6) No. (%).

Q: And the “Serious TRAE: Dyspnea” value (Phase 1, 600 mg (N=64))?
A: Its value is 0 No. (%).

Q: And the “Serious TRAE: Embolism” value (Phase 1, 600 mg (N=64))?
A: The value was 0 No. (%).

Q: And the “Serious TRAE: Erythema multiforme” value (Phase 1, 600 mg (N=64))?
A: Its value is 0 No. (%).

Q: What about the “Serious TRAE: Headache” value (Phase 1, 600 mg (N=64)) of the same compound?
A: Its value is 0 No. (%).

Q: And the “Serious TRAE: Hemoptysis” value (Phase 1, 600 mg (N=64))?
A: Its value is 1 (1.6) No. (%).

Q: What about the “Serious TRAE: Hydronephrosis” value (Phase 1, 600 mg (N=64)) of the same compound?
A: Its value is 0 No. (%).

Q: What about the “Serious TRAE: Hypertension” value (Phase 1, 600 mg (N=64)) of the same compound?
A: The value was 0 No. (%).

Q: What about the “Serious TRAE: Hypoalbuminemia” value (Phase 1, 600 mg (N=64)) of the same compound?
A: The value was 1 (1.6) No. (%).

Q: What about the “Serious TRAE: Intestinal obstruction” value (Phase 1, 600 mg (N=64)) of the same compound?
A: Its value is 0 No. (%).

Q: What about the “Serious TRAE: Intra-abdominal fluid collection” value (Phase 1, 600 mg (N=64)) of the same compound?
A: The value was 0 No. (%).

Q: And the “Serious TRAE: Intracranial tumor hemorrhage” value (Phase 1, 600 mg (N=64))?
A: Its value is 0 No. (%).

Q: What about the “Serious TRAE: Liver injury” value (Phase 1, 600 mg (N=64)) of the same compound?
A: The value was 0 No. (%).

Q: And the “Serious TRAE: Lung adenocarcinoma” value (Phase 1, 600 mg (N=64))?
A: Its value is 0 No. (%).

Q: What about the “Serious TRAE: Malignant neoplasm progression” value (Phase 1, 600 mg (N=64)) of the same compound?
A: The value was 1 (1.6) No. (%).

Q: And the “Serious TRAE: Multiple organ dysfunction syndrome” value (Phase 1, 600 mg (N=64))?
A: Its value is 0 No. (%).

Q: And the “Serious TRAE: Nausea” value (Phase 1, 600 mg (N=64))?
A: The value was 2 (3.1) No. (%).

Q: What about the “Serious TRAE: Nephrolithiasis” value (Phase 1, 600 mg (N=64)) of the same compound?
A: Its value is 0 No. (%).

Q: What about the “Serious TRAE: Platelet counts decreased” value (Phase 1, 600 mg (N=64)) of the same compound?
A: Its value is 0 No. (%).

Q: What about the “Serious TRAE: Pleural effusion” value (Phase 1, 600 mg (N=64)) of the same compound?
A: The value was 0 No. (%).

Q: And the “Serious TRAE: Pneumonia” value (Phase 1, 600 mg (N=64))?
A: Its value is 0 No. (%).

Q: What about the “Serious TRAE: Pneumonitis” value (Phase 1, 600 mg (N=64)) of the same compound?
A: Its value is 0 No. (%).

Q: What about the “Serious TRAE: Prolonged QT interval” value (Phase 1, 600 mg (N=64)) of the same compound?
A: Its value is 1 (1.6) No. (%).

Q: What about the “Serious TRAE: Pulmonary embolism” value (Phase 1, 600 mg (N=64)) of the same compound?
A: Its value is 0 No. (%).

Q: And the “Serious TRAE: Pyrexia” value (Phase 1, 600 mg (N=64))?
A: The value was 0 No. (%).

Q: What about the “Serious TRAE: Rash” value (Phase 1, 600 mg (N=64)) of the same compound?
A: Its value is 3 (4.7) No. (%).

Q: What about the “Serious TRAE: Rectal hemorrhage” value (Phase 1, 600 mg (N=64)) of the same compound?
A: Its value is 0 No. (%).

Q: And the “Serious TRAE: Respiratory failure” value (Phase 1, 600 mg (N=64))?
A: Its value is 0 No. (%).

Q: What about the “Serious TRAE: Seizure” value (Phase 1, 600 mg (N=64)) of the same compound?
A: The value was 0 No. (%).

Q: And the “Serious TRAE: Septic shock” value (Phase 1, 600 mg (N=64))?
A: Its value is 0 No. (%).

Q: What about the “Serious TRAE: Sudden cardiac arrest” value (Phase 1, 600 mg (N=64)) of the same compound?
A: Its value is 1 (1.6) No. (%).

Q: What about the “Serious TRAE: Sudden death” value (Phase 1, 600 mg (N=64)) of the same compound?
A: Its value is 1 (1.6) No. (%).

Q: What about the “Serious TRAE: Upper respiratory tract infection” value (Phase 1, 600 mg (N=64)) of the same compound?
A: The value was 0 No. (%).

Q: And the “Serious TRAE: Ventricular tachycardia” value (Phase 1, 600 mg (N=64))?
A: Its value is 1 (1.6) No. (%).

Q: What about the “Serious TRAE: Vomiting” value (Phase 1, 600 mg (N=64)) of the same compound?
A: The value was 2 (3.1) No. (%).

Q: And the “Serious TRAE: Weight loss” value (Phase 1, 600 mg (N=64))?
A: The value was 2 (3.1) No. (%).

Q: And the “Serious TEAE: ALT increased” value (Phase 1, 800 mg (N=3))?
A: Its value is 0 No. (%).

Q: What about the “Serious TEAE: AST increased” value (Phase 1, 800 mg (N=3)) of the same compound?
A: The value was 0 No. (%).

Q: And the “Serious TEAE: Abdominal Pain” value (Phase 1, 800 mg (N=3))?
A: Its value is 0 No. (%).

Q: And the “Serious TEAE: Abdominal distension” value (Phase 1, 800 mg (N=3))?
A: Its value is 0 No. (%).

Q: And the “Serious TEAE: Acute cholecystitis” value (Phase 1, 800 mg (N=3))?
A: Its value is 0 No. (%).

Q: What about the “Serious TEAE: Acute pancreatitis” value (Phase 1, 800 mg (N=3)) of the same compound?
A: The value was 0 No. (%).

Q: What about the “Serious TEAE: Anal abscess” value (Phase 1, 800 mg (N=3)) of the same compound?
A: Its value is 0 No. (%).

Q: What about the “Serious TEAE: Any” value (Phase 1, 800 mg (N=3)) of the same compound?
A: The value was 1 (33.3) No. (%).

Q: And the “Serious TEAE: Aortic intramural hematoma” value (Phase 1, 800 mg (N=3))?
A: Its value is 0 No. (%).

Q: And the “Serious TEAE: Arrhythmia” value (Phase 1, 800 mg (N=3))?
A: Its value is 0 No. (%).

Q: And the “Serious TEAE: Blood bilirubin increased” value (Phase 1, 800 mg (N=3))?
A: The value was 0 No. (%).

Q: What about the “Serious TEAE: Blood creatinine increased” value (Phase 1, 800 mg (N=3)) of the same compound?
A: Its value is 0 No. (%).

Q: What about the “Serious TEAE: COVID-19” value (Phase 1, 800 mg (N=3)) of the same compound?
A: The value was 0 No. (%).

Q: And the “Serious TEAE: Cardiac tamponade” value (Phase 1, 800 mg (N=3))?
A: Its value is 0 No. (%).

Q: And the “Serious TEAE: Coronary artery atherosclerosis” value (Phase 1, 800 mg (N=3))?
A: The value was 0 No. (%).

Q: And the “Serious TEAE: Death” value (Phase 1, 800 mg (N=3))?
A: Its value is 0 No. (%).

Q: What about the “Serious TEAE: Diarrhea” value (Phase 1, 800 mg (N=3)) of the same compound?
A: The value was 0 No. (%).

Q: What about the “Serious TEAE: Drug eruption” value (Phase 1, 800 mg (N=3)) of the same compound?
A: Its value is 0 No. (%).

Q: And the “Serious TEAE: Dyspnea” value (Phase 1, 800 mg (N=3))?
A: Its value is 0 No. (%).

Q: What about the “Serious TEAE: Embolism” value (Phase 1, 800 mg (N=3)) of the same compound?
A: Its value is 0 No. (%).

Q: And the “Serious TEAE: Erythema multiforme” value (Phase 1, 800 mg (N=3))?
A: Its value is 0 No. (%).
